Several values for one entry are separate records, joined by “and”; a condition that tells them apart may be missing. Equal entries are not always repeated.
Columns and labels:
PTPN2 (B16F10.4 cells) = molecular target: T1, PTPN2 (B16F10.4 cells) (Mus musculus, UniProt Q06180); experiment: HiBiT Degradation B16F10.4 PTPN2; format: cell-based; conditions: 24.0 hours
T1 construct: HiBiT; host or cells: B16F10.4
T1 sequence (Q06180 1-406): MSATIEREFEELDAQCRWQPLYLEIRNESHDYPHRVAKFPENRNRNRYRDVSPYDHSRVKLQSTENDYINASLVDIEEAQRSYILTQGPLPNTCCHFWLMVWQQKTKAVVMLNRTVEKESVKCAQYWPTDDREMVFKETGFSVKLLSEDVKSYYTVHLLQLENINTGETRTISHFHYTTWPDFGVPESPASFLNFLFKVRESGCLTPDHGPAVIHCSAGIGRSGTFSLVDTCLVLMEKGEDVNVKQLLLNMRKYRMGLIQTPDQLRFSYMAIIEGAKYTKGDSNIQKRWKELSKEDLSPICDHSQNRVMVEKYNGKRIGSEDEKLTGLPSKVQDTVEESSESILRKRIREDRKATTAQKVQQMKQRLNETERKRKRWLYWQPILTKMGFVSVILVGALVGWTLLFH

[1] = molecular target: T2, PTPN2 (HiBIT-PTPN2 in 293T.109 cells) (Homo sapiens, UniProt P17706); experiment: HiBiT Degradation 293T.109 PTPN2 (Nano-Glo HiBiT Lytic Assay); format: cell-based; conditions: 24.0 hours
T2 construct: expressed in transfected cells; host or cells: 293T.109 (293T WT from ATCC)
T2 sequence (P17706 1-415): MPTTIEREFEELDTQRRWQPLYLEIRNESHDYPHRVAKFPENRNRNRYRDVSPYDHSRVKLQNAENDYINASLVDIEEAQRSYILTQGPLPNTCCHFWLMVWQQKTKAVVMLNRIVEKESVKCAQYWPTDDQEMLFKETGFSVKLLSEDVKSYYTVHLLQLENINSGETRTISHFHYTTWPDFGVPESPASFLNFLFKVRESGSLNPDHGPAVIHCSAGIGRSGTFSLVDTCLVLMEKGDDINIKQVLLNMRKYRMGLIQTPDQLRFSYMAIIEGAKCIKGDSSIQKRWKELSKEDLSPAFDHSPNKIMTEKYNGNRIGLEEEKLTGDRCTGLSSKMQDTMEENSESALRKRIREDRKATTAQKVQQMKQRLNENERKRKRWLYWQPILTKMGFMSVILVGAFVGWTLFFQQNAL
Summary of the method: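 Degradation read-out: lytic HiBiT luminescence after 24 h treatment (37 °C, 5% CO2) of 5000 293T cells per well expressing HiBiT-fused PTPN2 from an N-terminal tag. Dosing was 11 points, half-log steps down from 10 μM, in duplicate; vehicle-treated and no-reagent wells served as controls.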

Structure (SMILES) | DC50 (PTPN2 (B16F10.4 cells)) | DC50 [1]
Cn1c(=O)n(C2CCC(=O)NC2=O)c2ccc(NC3CCN(C(=O)Nc4cccc(CS(=O)(=O)N5CC[C@H](Nc6cccc(-c7sc(C(=O)O)c(OCC(=O)O)c7Cl)c6)CC5(C)C)c4)CC3)cc21 (stereo partly drawn) [Example 81, 3-(carboxymethoxy)-4-chloro-5-[3-[[(4S)-1-[[3-[[4-[[1-(2,6-dioxo-3-piperidyl)-3-methyl-2-oxo-benzimidazol-5-yl]amino]piperidine-1-carbonyl]amino]phenyl]methylsulfonyl]-2,2-dimethyl-4-piperidyl]amino]phenyl]thiophene-2-carboxylic acid] | 50 to 200 nM | 50 to 200 nM
CC1(C)C[C@@H](Nc2cccc(-c3sc(C(=O)O)c(OCC(=O)O)c3Cl)c2)CCN1S(=O)(=O)Cc1cccc(NC(=O)N2CCC(c3ccc4c5c(cccc35)C(=O)N4C3CCC(=O)NC3=O)CC2)c1 (stereo partly drawn) [Example 82, 3-(carboxymethoxy)-4-chloro-5-[3-[[(4S)-1-[[3-[[4-[1-(2,6-dioxo-3-piperidyl)-2-oxo-benzo[cd]indol-6-yl]piperidine-1-carbonyl]amino]phenyl]methylsulfonyl]-2,2-dimethyl-4-piperidyl]amino]phenyl]thiophene-2-carboxylic acid] | < 50 nM | < 50 nM
CC1(C)C[C@@H](Nc2cccc(-c3sc(C(=O)O)c(OCC(=O)O)c3Cl)c2)CCN1S(=O)(=O)Cc1cccc(NC(=O)CN2CCC(c3ccc4c5c(cccc35)C(=O)N4C3CCC(=O)NC3=O)CC2)c1 (stereo partly drawn) [Example 83, 3-(carboxymethoxy)-4-chloro-5-[3-[[(4S)-1-[[3-[[2-[4-[1-(2,6-dioxo-3-piperidyl)-2-oxo-benzo[cd]indol-6-yl]-1-piperidyl]acetyl]amino]phenyl]methylsulfonyl]-2,2-dimethyl-4-piperidyl]amino]phenyl]thiophene-2-carboxylic acid] | 50 to 200 nM | < 50 nM
CC1(C)C[C@@H](Nc2cccc(-c3sc(C(=O)O)c(OCC(=O)O)c3Cl)c2)CCN1S(=O)(=O)Cc1cccc(NC(=O)N2CCC(C(=O)NCc3cccc4c3CN(C3CCC(=O)NC3=O)C4=O)CC2)c1 (stereo partly drawn) [Example 84, 3-(carboxymethoxy)-4-chloro-5-[3-[[(4S)-1-[[3-[[4-[[2-(2,6-dioxo-3-piperidyl)-1-oxo-isoindolin-4-yl]methylcarbamoyl]piperidine-1-carbonyl]amino]phenyl]methylsulfonyl]-2,2-dimethyl-4-piperidyl]amino]phenyl]thiophene-2-carboxylic acid] | ≥ 1000 nM | 200 to 1000 nM
CC1(C)C[C@@H](Nc2cccc(-c3sc(C(=O)O)c(OCC(=O)O)c3Cl)c2)CCN1S(=O)(=O)Cc1cccc(NC(=O)OC2CCN(C(=O)CNc3cccc4c3CN(C3CCC(=O)NC3=O)C4=O)CC2)c1 (some centres unmarked) [Example 85] | 200 to 1000 nM | 50 to 200 nM
CC1(C)C[C@@H](Nc2cccc(-c3sc(C(=O)O)c(OCC(=O)O)c3Cl)c2)CCN1S(=O)(=O)Cc1cccc(NC(=O)[C@H]2CC[C@H](C(=O)Nc3cccc4c3CN(C3CCC(=O)NC3=O)C4=O)CC2)c1 (stereo partly drawn) [Example 86, 3-(carboxymethoxy)-4-chloro-5-(3-(((4S)-1-((3-((1r,4R)-4-((2-(2,6-dioxopiperidin-3-yl)-1-oxoisoindolin-4-yl)carbamoyl)cyclohexane-1-carboxamido)benzyl)sulfonyl)-2,2-dimethylpiperidin-4-yl)amino)phenyl)thiophene-2-carboxylic acid] | 200 to 1000 nM | 50 to 200 nM
CC(C)n1c(=O)n(C2CCC(=O)NC2=O)c2ccc(C3CCN(C(=O)Nc4cccc(CS(=O)(=O)N5CC[C@H](Nc6cccc(-c7sc(C(=O)O)c(OCC(=O)O)c7Cl)c6)CC5(C)C)c4)CC3)cc21 (stereo partly drawn) [Example 87, 3-(carboxymethoxy)-4-chloro-5-[3-[[(4S)-1-[[3-[[4-[1-(2,6-dioxo-3-piperidyl)-3-isopropyl-2-oxo-benzimidazol-5-yl]piperidine-1-carbonyl]amino]phenyl]methylsulfonyl]-2,2-dimethyl-4-piperidyl]amino]phenyl]thiophene-2-carboxylic acid] | 50 to 200 nM and < 50 nM | 50 to 200 nM
CCn1c(=O)n(C2CCC(=O)NC2=O)c2ccc(C3CCN(C(=O)Nc4cccc(CS(=O)(=O)N5CC[C@H](Nc6cccc(-c7sc(C(=O)O)c(OCC(=O)O)c7Cl)c6)CC5(C)C)c4)CC3)cc21 (stereo partly drawn) [Example 88, 3-(carboxymethoxy)-4-chloro-5-(3-(((4S)-1-((3-(4-(1-(2,6-dioxopiperidin-3-yl)-3-ethyl-2-oxo-2,3-dihydro-1H-benzo[d]imidazol-5-yl)piperidine-1-carboxamido)benzyl)sulfonyl)-2,2-dimethylpiperidin-4-yl)amino)phenyl)thiophene-2-carboxylic acid] | 50 to 200 nM | < 50 nM
CC1(C)C[C@@H](Nc2cccc(-c3sc(C(=O)O)c(OCC(=O)O)c3Cl)c2)CCN1S(=O)(=O)Cc1cccc(NC(=O)COC2CCN(C(=O)CNc3cccc4c3CN(C3CCC(=O)NC3=O)C4=O)CC2)c1 (some centres unmarked) [Example 90] | 200 to 1000 nM | < 50 nM
Cn1c(=O)n(C2CCC(=O)NC2=O)c2ccc(C#CCNC(=O)Nc3cccc(CS(=O)(=O)N4CC[C@H](Nc5cccc(-c6sc(C(=O)O)c(OCC(=O)O)c6Cl)c5)CC4(C)C)c3)cc21 (stereo partly drawn) [Example 91, 3-(carboxymethoxy)-4-chloro-5-(3-(((4S)-1-((3-(3-(3-(1-(2,6-dioxopiperidin-3-yl)-3-methyl-2-oxo-2,3-dihydro-1H-benzo[d]imidazol-5-yl)prop-2-yn-1-yl)ureido)benzyl)sulfonyl)-2,2-dimethylpiperidin-4-yl)amino)phenyl)thiophene-2-carboxylic acid] | 50 to 200 nM | 50 to 200 nM
CC1(C)C[C@@H](Nc2cccc(-c3sc(C(=O)O)c(OCC(=O)O)c3Cl)c2)CCN1S(=O)(=O)Cc1cccc(NC(=O)COC2CN(C(=O)CNc3cccc4c3CN(C3CCC(=O)NC3=O)C4=O)C2)c1 (some centres unmarked) [Example 92] | 200 to 1000 nM | 50 to 200 nM
O=C(O)COc1c(C(=O)O)sc(-c2cccc(NC3CCN(S(=O)(=O)Cc4ccc(F)c(NC(=O)C5CN(C(=O)COc6cccc7c6CN(C6CCC(=O)NC6=O)C7=O)C5)c4)CC3)c2)c1Cl (centres unmarked) [Example 93] | 200 to 1000 nM | 50 to 200 nM
CC1(C)C[C@@H](Nc2cccc(-c3sc(C(=O)O)c(OCC(=O)O)c3Cl)c2)CCN1S(=O)(=O)Cc1cccc(NC(=O)N2CCC(c3ccc4c(c3)CCN4C3CCC(=O)NC3=O)CC2)c1 (stereo partly drawn) [Example 94, 3-(carboxymethoxy)-4-chloro-5-[3-[[(4S)-1-[[3-[[4-[1-(2,6-dioxo-3-piperidyl)indolin-5-yl]piperidine-1-carbonyl]amino]phenyl]methylsulfonyl]-2,2-dimethyl-4-piperidyl]amino]phenyl]thiophene-2-carboxylic acid] | 200 to 1000 nM | 200 to 1000 nM
CC1Cc2cc(C3CCN(C(=O)Nc4cccc(CS(=O)(=O)N5CC[C@H](Nc6cccc(-c7sc(C(=O)O)c(OCC(=O)O)c7Cl)c6)CC5(C)C)c4)CC3)ccc2N1C1CCC(=O)NC1=O (stereo partly drawn) [Example 95, 3-(carboxymethoxy)-4-chloro-5-[3-[[(4S)-1-[[3-[[4-[1-(2,6-dioxo-3-piperidyl)-2-methyl-indolin-5-yl]piperidine-1-carbonyl]amino]phenyl]methylsulfonyl]-2,2-dimethyl-4-piperidyl]amino]phenyl]thiophene-2-carboxylic acid] | 200 to 1000 nM | 200 to 1000 nM
CC1(C)C[C@@H](Nc2cccc(-c3sc(C(=O)O)c(OCC(=O)O)c3Cl)c2)CCN1S(=O)(=O)Cc1cccc(NC(=O)OC2CN(C(=O)CNc3cccc4c3CN(C3CCC(=O)NC3=O)C4=O)C2)c1 (stereo partly drawn) [Example 96, 3-(carboxymethoxy)-4-chloro-5-[3-[[(4S)-1-[[3-[[1-[2-[[2-(2,6-dioxo-3-piperidyl)-1-oxo-isoindolin-4-yl]amino]acetyl]azetidin-3-yl]oxycarbonylamino]phenyl]methylsulfonyl]-2,2-dimethyl-4-piperidyl]amino]phenyl]thiophene-2-carboxylic acid] | 200 to 1000 nM | 50 to 200 nM
CC1(C)C[C@@H](Nc2cccc(-c3sc(C(=O)O)c(OCC(=O)O)c3Cl)c2)CCN1S(=O)(=O)Cc1cccc(NC(=O)C2C[C@@H]3CN(C(=O)CNc4cccc5c4CN(C4CCC(=O)NC4=O)C5=O)C[C@@H]3C2)c1 (stereo partly drawn) [Example 97, 5-[3-[[(4S)-1-[[3-[[(3aR,6aS)-2-[2-[[2-(2,6-dioxo-3-piperidyl)-1-oxo-isoindolin-4-yl]amino]acetyl]-3,3a,4,5,6,6a-hexahydro-1H-cyclopenta[c]pyrrole-S-carbonyl]amino]phenyl]methylsulfonyl]-2,2-dimethyl-4-piperidyl]amino]phenyl]-3-(carboxymethoxy)-4-chloro-thiophene-2-carboxylic acid] | ≥ 1000 nM | 200 to 1000 nM
